# Data reported in US6972319B1, “Pituitary adenylate cyclase activating peptide (PACAP)receptor 3 (R3) agonists and their pharmacological methods of use” (priority 1999, dated 2005).
# Like-named read-outs stand apart in the source and are kept apart here. No end group written: not given here.
# Columns and labels:
# [1] = Peptide-induced elevation of plasma insulin after IVGTT in rats; assay type: in vivo; settings: one minute after IVGTT (0.4 g/kg glucose), Wistar rats
# Experimental: Wistar rats are fasted overnight (17 hrs) and then anesthetized with pentobarbital (0.1 ml/100 g BW). Glucose (0.4 g/kg dissolved in 1% human albumin-saline)+/−peptide (dissolved in 1% human albumin-saline) is injected intravenously into the tail vein. The rats are eye-bled 1 minute after the injection and 50-100 ul of the plasma are assayed for insulin level with the Linco RIA kit (Linco Research, Inc., St. Charles, Mo.).
# In accordance with the protocol of example 2 above, overnight fasted Wistar rats were anesthetized with pentobarital; i.v. injected with glucose±peptide and eye bled after 1 minute. N=12 rats/group. […] The peptide or vehicle was given i.v. followed by a glucose load given i.p. in accordance with example 3. The plasma glucose was followed over the time period indicated.
# Plasma insulin: Data are expressed as % of plasma insulin one minute after IVGTT (0.4 g/kg glucose) with either saline, 0.1 nmol/kg P51, P55, P60, P66 or 1 nmole/kg of the other peptides in Wistar rats. Blood was drawn from the eye and insulin was measured with the rat insulin RIA kit (Linco Research, Inc., St. Charles, Mo.).
# rat islets = test: Insulin secretion by isolated rat islets; assay type: cell-based, Sprague-Dawley rats; settings: for Islet Insulin Release (% of Basal): 10 nM peptide, 2 hrs, 8 mM glucose, % of [insulin] in 8 mM glucose alone
# Experimental: Sprague Dawley rats (275-320 g) were used as the source of donor islets. Briefly, the pancreas was filled with 10 ml of cold reconstituted Liberase RI (Boehringer Manheim), harvested and incubated with additional 5 ml enzyme solution in water bath for 30 minutes. Tissue suspension was washed twice with cold 10% FBS/Hanks buffer (Gibco), resuspended in 8 ml 25% ficoll (Sigma) and then layered with 5 ml each of 23%, 20% and 11% ficoll. The islets in the 20% layer after centrifugation were removed, washed twice with cold 10% FBS/Hank buffer and resuspended in 10% FBS/RPMI 1640 media (Sigma).
# Islet insulin release: Rat islets were isolated from Sprague-Dawley rats as described in example 1 and treated with either vehicle or specified peptide (10 nM) for 2 hrs. Insulin concentration in the medium was measured with the Linco rat insulin RIA kit. Glucose concentration in the medium was 8 mM. The data are expressed as % of [insulin] in 8 mM glucose alone.
# PACAP-R2 = target: T1, PACAP-R2 (Homo sapiens, UniProt P32241); test: Cyclic AMP SPA on CHO cells transfected with PACAP-R2; assay type: cell-based; settings: concentration at which 50% of maximum PACAP27 activity is achieved, NA = no detectable activities
# T1 construct: expressed in transfected cells; host or cells: CHO cells
# T1 sequence (P32241 31-457): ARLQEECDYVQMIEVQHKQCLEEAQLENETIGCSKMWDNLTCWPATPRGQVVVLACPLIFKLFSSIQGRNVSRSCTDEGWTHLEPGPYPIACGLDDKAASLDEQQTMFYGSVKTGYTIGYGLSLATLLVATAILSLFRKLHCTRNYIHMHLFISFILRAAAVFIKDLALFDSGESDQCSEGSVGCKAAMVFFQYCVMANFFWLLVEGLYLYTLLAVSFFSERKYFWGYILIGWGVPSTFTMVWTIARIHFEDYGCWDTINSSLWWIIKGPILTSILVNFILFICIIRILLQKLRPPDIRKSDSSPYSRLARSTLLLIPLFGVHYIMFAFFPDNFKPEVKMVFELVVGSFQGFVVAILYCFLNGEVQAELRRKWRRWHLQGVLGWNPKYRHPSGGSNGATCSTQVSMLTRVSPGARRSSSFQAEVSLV
# Method in brief: (§1)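 Potency reflects cyclic AMP accumulation, determined by SPA, after a 15 min, 37 C peptide exposure of CHO cells carrying the human receptor. Values are expressed relative to the maximal PACAP27 effect, with EC50 taken at its 50% level.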
# PACAP-R3 = target: T2, PACAP-R3 (Homo sapiens, UniProt P41587); test: Cyclic AMP SPA on CHO cells expressing PACAP R3; assay type: cell-based; set-up: expressed in transfected cells; host or cells: CHO cells (Geneticin selection); settings: for R3 Selectivity: ratio of EC50 at R2 versus EC50 at R3
# T2 sequence (P41587 24-438): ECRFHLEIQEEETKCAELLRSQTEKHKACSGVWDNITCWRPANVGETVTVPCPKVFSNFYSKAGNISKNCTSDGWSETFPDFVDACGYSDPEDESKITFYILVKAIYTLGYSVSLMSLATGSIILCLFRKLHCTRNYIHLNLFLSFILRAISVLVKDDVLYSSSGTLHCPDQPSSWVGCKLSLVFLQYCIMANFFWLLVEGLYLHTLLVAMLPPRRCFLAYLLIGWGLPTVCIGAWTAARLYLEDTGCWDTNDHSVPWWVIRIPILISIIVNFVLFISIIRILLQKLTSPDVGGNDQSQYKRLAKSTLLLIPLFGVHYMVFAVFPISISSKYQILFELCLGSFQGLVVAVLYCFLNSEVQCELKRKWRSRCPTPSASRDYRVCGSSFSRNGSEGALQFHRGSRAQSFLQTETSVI
# Method in brief: as §1
# [2] = Intraperitoneal glucose tolerance test (IPGTT), plasma glucose in rats; assay type: in vivo, Wistar rats; settings: for elevation of plasma glucose 30 minutes after IPGTT: 1 nmole/kg s.c., rats, FIG. 7; for Plasma Glucose (% of Basal) s.c.: plasma glucose after IPGTT (1 g/kg glucose), 1 nmol/kg peptide s.c.; for Plasma Glucose (% of Basal) s.c. / Plasma Glucose (% of Basal) i.v.: % of vehicle; for Plasma Glucose (% of Basal) i.v.: plasma glucose area under the curve after IPGTT (1 g/kg glucose), 1 nmol/kg peptide i.v.
# Experimental: Wistar rats are fasted overnight and then anesthetized with pentobarbital. The rats were eye-bled (zero time) and the peptide (in 1% human albumin) was injected into the tail vein. Five minutes later, 1 g/kg of glucose (in saline) was injected intraperitoneally, and the rats were eye-bled after 15, 30 and 60 minutes. Plasma glucose levels were determined using the Technicon Axon autoanalyzer, Bayer Diagnosics division of Bayer Corporation, Tarrytown N.Y., operated using Method No. SM4-2143F90“Glucose”.
# Wistar rats were fasted overnight and then anesthetized with Pentobarbital. The rats were eye-bled (zero time) and the peptide (in 1% human albumin) was injected subcutaneously. Five minutes later, 1 g/kg of glucose (in saline) was injected intraperitoneally, and the rats were eye-bled after 30 minutes.
# Plasma glucose: Data are expressed as % of vehicle of plasma glucose area under the curve after IPGTT (1 g/kg glucose) after treatment with 1 nmol/kg dose of the peptide. […] The present inventors have shown for the first time that this is because the effects of R2 and R3 on glucose tend to cancel each other out. […] Therefore, R3-selectivity appears to be a desirable attribute for medicaments which are to be employed in achieving blood glucose reduction, for treatment of type 2 diabetes.
# [3] = cAMP SPA, CHO cells transfected with PACAP-R3, concentration at which 50% of maximum PACAP27 activity is achieved, NA = no detectable activities, read-out: R3 EC50
Substance,Plasma Insulin (% of Basal) ([1]; 1 nmole/kg peptide i.v.) [%],Islet Insulin Release (% of Basal) (rat islets) [%],"EC50 (PACAP-R2; cAMP SPA, read-out: R2 EC50) [nM]",EC50 (PACAP-R3; [3]) [nM],R3 Selectivity (PACAP-R3),elevation of plasma glucose 30 minutes after IPGTT [2],Plasma Glucose (% of Basal) s.c. [2] [%],Plasma Insulin (% of Basal) ([1]; 0.1 nmol/kg peptide i.v.) [%],Plasma Glucose (% of Basal) i.v. [2] [%],"EC50 (PACAP-R2; R2 EC50, cAMP SPA) [nM]","disposal of blood glucose ([2]; peptide i.v. followed by glucose load i.p., FIG. 5)","release of insulin from isolated rat islets (rat islets; 0.1-100 nM, 3 or 8 mM glucose, FIGS. 4A-4B)",EC50 (PACAP-R3) [nM]
PACAP 27: 27-amino acid form of pituitary adenylate cyclase activating peptide with an amidated carboxyl terminus [reference compound],320,186,,,,,,,,,,,
HSDAVFTDNYTRLRKQMAVKKYLNSIKKGGT [Peptide R3P9],,221,40,2,20,,,,,,,,
HSDAVFTDNYTRLRKQLAAKKYLNDIKKGGT [Peptide R3P12],302,324,> 100,0.5,>200,significantly reduced,76,,,,,,
HSDAVFTENYTKLRKQLAAKKYLNDLLNGGT [Peptide R3P10],,174,3,11,0.3,,,,,,,,
HSDAVFTDNYTRLRKQVAAKKYLQSIKNKRY [Peptide R3P66],,184,100,0.4,250,,82,388,,,,,
HSDAVFTDNYTRLRKQLAAKKYLNDIKKKRY [Peptide R3P36],255,,> 90,0.4,>200,,78,,73,,,,
HSDAVFTENYTKLRKQLAAKKYLNDLKKGGT [Peptide R3P3],361,275,,,130,significantly reduced,72,,77,100,markedly accelerated the disposal of blood glucose,significantly enhances the release of insulin,0.75
HSDAVFTDNYTRLRKQVAAKKYLQSIKKKR [Peptide R3P77],388,,200,0.4,500,,,,,,,,
